The test system of one series is ICR male mice. It is filed as in vivo. The protocol: Six-week old ICR male mice (Charles River Japan) were purchased, and after quarantine for 1 week, acclimatized for 1 week in a clean animal cage (air-conditioning: HEPA filter of class 1000, room temperature: 20 to 24° C., humidity: 35 to 60%). Then, in order to obtain the MTD value, a suspension of the test compound was administered from the caudal vein. The suspension was administered by using physiological saline (Hikari Pharmaceutical) or a glucose solution (Otsuka Pharmaceutical) as a medium. On the basis of the MTD value obtained, the suspension was administered everyday from the caudal vein for three consecutive days in an amount corresponding to ½ of the MTD value (n=3). Symptoms were observed up to 6 hours after each administration to observe neurotoxicity, and then autopsy was performed to examine major organs.
Compound (MTD (mg/kg)): neurotoxicity (“−” indicates negative for neurotoxicity, and “+” indicate positive for neurotoxicity)

Series [1] concerns vascular smooth muscle cells. Nature of the series: Introduced amount of the compounds to vascular smooth muscle cells (mixture culture with macrophage). It is filed as cell-based. The following applies: liposome PC 50 nmol + PS 50 nmol + compound, 37° C., 5% CO2, 24 hours. The protocol:
The above liposome agent was added to a mixture culture system of vascular smooth muscle cells and macrophage, described in WO 01/082897, the disclosure of which is expressly incorporated by reference herein in its entirety. After cultivation under 37° C., 5% CO2 for 24 hours, the amount of the compounds introduced to the vascular smooth muscle cells were quantitated.

Series [2] is described as follows: Preparation of liposome: maximum amount of compound forming liposome, particle size. It counts as physicochemical. To be noted: with dipalmitoyl-PC 50 nmol + dipalmitoyl-PS 50 nmol, 0.9% physiological saline, ultrasonicated. The protocol:
According to the method described in J. Med. Chem., 25 (12), 1500 (1982), the disclosure of which is expressly incorporated by reference herein in its entirety, dipalmitoyl-PC (Funakoshi, No. 1201-41-0225), dipalmitoyl-PS (Funakoshi, No. 1201-42-0237), and the compound of the present invention, in the ratio described below, were dissolved in chloroform contained in an eggplant-shaped flask to obtain a uniform solution, and then the solvent was evaporated under reduced pressure to obtain a thin membrane formed on the bottom of the flask. The thin membrane was dried in vacuo, then added with an appropriate volume of 0.9% physiological saline (Hikari Pharmaceutical, No. 512) and ultrasonicated (probe type oscillator, Branson, No. 3542, 0.1 mW) for 5 minute with ice cooling to obtain a uniform liposome dispersion. Size of the particles contained in the resulting dispersion was measured by using WBC analyzer (Nihon Kohden, A-1042). The particle sizes were 85 to 110 nm.
Liposome formulation having the ratio of PC:PS:Compound d1-6=50:50:40 (nmol), and a particle sizes of 85 to 120 nm are prepared from a chloroform solution of PC (dipalmitoyl-phosphatidylcholine Funakoshi, No. 850355C), PS (dipalmitoyl-phosphatidylserine Funakoshi, No. 840037C), and Compound d1-6.

Setting [3] is: suspension administered from the caudal vein, ICR male mice.

Where two headings read alike, the source gives them in different places.

The source of these data is patent US7887835B2, “Compound comprising a fluorine-substituted alkyl group and a liposome contrast medium comprising the compound” (priority 2006, dated 2011).

Turning to `CC(C)CCC[C@@H](C)[C@H]1CC[C@H]2[C@@H]3CC=C4C[C@@H](OC(=O)Oc5cc(C(F)(F)F)cc(C(F)(F)F)c5)CC[C@]4(C)[C@H]3CC[C@]12C` [Compound b1-1], the MTD in the series on ICR male mice (setting [3]) is 400 mg/kg. For the same compound, the Introduced amount in series [1] came to 17.5 nmol/mg protein. Further, the “Maximum amount forming liposome” value in series [2] is 40 nmol.
Taken in the same sequence, the figures for `CC(C)CCC[C@@H](C)[C@H]1CC[C@H]2[C@@H]3CC=C4C[C@@H](OC(=O)CCCCCCCCCC(C)Oc5cc(C(F)(F)F)cc(C(F)(F)F)c5)CC[C@]4(C)[C@H]3CC[C@]12C` (some centres unmarked) [Compound b1-8] were 400 mg/kg, 8.9 nmol/mg protein and 20 nmol.
In the same order, the values of `CC(C)CCC[C@@H](C)[C@H]1CC[C@H]2[C@@H]3CC=C4C[C@@H](OC(=O)CCC(=O)Oc5cc(C(F)(F)F)cc(C(F)(F)F)c5)CC[C@]4(C)[C@H]3CC[C@]12C` [Compound b4-2] are 400 mg/kg, 10.6 nmol/mg protein and 20 nmol.
In the series with ICR male mice (mouse, in vivo), `O=C(CCCCCCCC(F)(F)C(F)(F)C(F)(F)C(F)(F)C(F)(F)C(F)(F)F)OCC(COC(=O)CN1CCOCC1)OC(=O)CCCCCCCC(F)(F)C(F)(F)C(F)(F)C(F)(F)C(F)(F)C(F)(F)F` (centres unmarked) [Compound e1-6] gave an MTD of 400 mg/kg. Further, in series [2], the “Maximum amount forming liposome” value came to 40 nmol.
